Reference: PubChem BioAssay (NCI)
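Each compound was tested at five concentrations against cells in 96-well plates for 48 hours. TGI is the concentration that stops growth completely.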

Assays:
Assay in all cases: growth of human tumour cells (NCI), 48 h
SF-539 CNS = tested on: SF-539 CNS
HL-60(TB) leukemia = tested on: HL-60(TB) leukemia
COLO 205 colon = tested on: COLO 205 colon
MDA-MB-231 breast = tested on: MDA-MB-231 breast
PC-3 prostate = tested on: PC-3 prostate
M14 melanoma = tested on: M14 melanoma
HOP-18 NSCLC = tested on: HOP-18 NSCLC
MDA-MB-435 = tested on: MDA-MB-435
SNB-75 CNS = tested on: SNB-75 CNS
DMS 114 small cell lung = tested on: DMS 114 small cell lung
SW-620 colon = tested on: SW-620 colon
DMS 273 small cell lung = tested on: DMS 273 small cell lung
HCC-2998 colon = tested on: HCC-2998 colon
UO-31 renal = tested on: UO-31 renal
SF-295 CNS = tested on: SF-295 CNS
U251 CNS = tested on: U251 CNS
K-562 leukemia = tested on: K-562 leukemia
UACC-62 melanoma = tested on: UACC-62 melanoma
RXF 393 renal = tested on: RXF 393 renal
HCT-116 colon = tested on: HCT-116 colon
OVCAR-5 ovarian = tested on: OVCAR-5 ovarian
SK-OV-3 ovarian = tested on: SK-OV-3 ovarian
OVCAR-8 ovarian = tested on: OVCAR-8 ovarian
LXFL 529 NSCLC = tested on: LXFL 529 NSCLC
M19-MEL melanoma = tested on: M19-MEL melanoma
RXF-631 renal = tested on: RXF-631 renal
KM20L2 colon = tested on: KM20L2 colon
UACC-257 melanoma = tested on: UACC-257 melanoma
BT-549 breast = tested on: BT-549 breast
A498 renal = tested on: A498 renal
HT29 colon = tested on: HT29 colon
SNB-19 CNS = tested on: SNB-19 CNS
HOP-92 NSCLC = tested on: HOP-92 NSCLC
MCF7 breast = tested on: MCF7 breast
CCRF-CEM leukemia = tested on: CCRF-CEM leukemia
DU-145 prostate = tested on: DU-145 prostate
786-0 renal = tested on: 786-0 renal
MOLT-4 leukemia = tested on: MOLT-4 leukemia
RPMI-8226 leukemia = tested on: RPMI-8226 leukemia
CAKI-1 renal = tested on: CAKI-1 renal
NCI-H226 lung = tested on: NCI-H226 lung
DLD-1 colon = tested on: DLD-1 colon
MDA-N = tested on: MDA-N
SR leukemia = tested on: SR leukemia
TK-10 renal = tested on: TK-10 renal
NCI-H460 lung = tested on: NCI-H460 lung
SF-268 CNS = tested on: SF-268 CNS
IGROV1 ovarian = tested on: IGROV1 ovarian
OVCAR-4 ovarian = tested on: OVCAR-4 ovarian
MALME-3M melanoma = tested on: MALME-3M melanoma
SN12C renal = tested on: SN12C renal
NCI/ADR-RES ovarian = tested on: NCI/ADR-RES ovarian
SK-MEL-5 melanoma = tested on: SK-MEL-5 melanoma
T-47D breast = tested on: T-47D breast
A549 NSCLC = tested on: A549 NSCLC
SK-MEL-28 melanoma = tested on: SK-MEL-28 melanoma
SNB-78 CNS = tested on: SNB-78 CNS
OVCAR-3 ovarian = tested on: OVCAR-3 ovarian
ACHN renal = tested on: ACHN renal
LOX IMVI melanoma = tested on: LOX IMVI melanoma
NCI-H522 lung = tested on: NCI-H522 lung
EKVX NSCLC = tested on: EKVX NSCLC
HCT-15 colon = tested on: HCT-15 colon
KM12 colon = tested on: KM12 colon
HOP-62 NSCLC = tested on: HOP-62 NSCLC
NCI-H23 lung = tested on: NCI-H23 lung
SK-MEL-2 melanoma = tested on: SK-MEL-2 melanoma
XF 498 CNS = tested on: XF 498 CNS

COc1c(Cl)cc(NC(=S)C#N)cc1Cl
TGI (SF-539 CNS): 59 µM | TGI (HL-60(TB) leukemia): > 100 µM | TGI (COLO 205 colon): 32.2 µM | TGI (MDA-MB-231 breast): 36.1 µM | TGI (PC-3 prostate): > 100 µM | TGI (M14 melanoma): 64.4 µM | TGI (HOP-18 NSCLC): 60.1 µM | TGI (MDA-MB-435): 92.8 µM | TGI (SNB-75 CNS): 67.4 µM | TGI (DMS 114 small cell lung): 36.3 µM | TGI (SW-620 colon): > 100 µM | TGI (DMS 273 small cell lung): 83.2 µM | TGI (HCC-2998 colon): 32.6 µM | TGI (UO-31 renal): 56.1 µM | TGI (SF-295 CNS): > 79.9 µM | TGI (U251 CNS): 43.6 µM | TGI (K-562 leukemia): > 100 µM | TGI (UACC-62 melanoma): 30.8 µM | TGI (RXF 393 renal): > 81.4 µM | TGI (HCT-116 colon): 31.6 µM | TGI (OVCAR-5 ovarian): > 100 µM | TGI (SK-OV-3 ovarian): > 74.7 µM | TGI (OVCAR-8 ovarian): > 69.3 µM | TGI (LXFL 529 NSCLC): 85.8 µM | TGI (M19-MEL melanoma): 50.2 µM | TGI (RXF-631 renal): 51.3 µM | TGI (KM20L2 colon): 54.4 µM | TGI (UACC-257 melanoma): 53.9 µM | TGI (BT-549 breast): 39.5 µM | TGI (A498 renal): 44.5 µM | TGI (HT29 colon): > 65.8 µM | TGI (SNB-19 CNS): > 100 µM | TGI (HOP-92 NSCLC): 48.8 µM | TGI (MCF7 breast): 92.9 µM | TGI (CCRF-CEM leukemia): > 100 µM | TGI (DU-145 prostate): > 100 µM | TGI (786-0 renal): 88.2 µM | TGI (MOLT-4 leukemia): > 100 µM | TGI (RPMI-8226 leukemia): > 58.7 µM | TGI (CAKI-1 renal): 58.4 µM | TGI (NCI-H226 lung): 57.6 µM | TGI (DLD-1 colon): > 100 µM | TGI (MDA-N): 69.1 µM | TGI (SR leukemia): > 92.2 µM | TGI (TK-10 renal): > 100 µM | TGI (NCI-H460 lung): 68.2 µM | TGI (SF-268 CNS): > 89.9 µM | TGI (IGROV1 ovarian): > 82.6 µM | TGI (OVCAR-4 ovarian): 97.9 µM | TGI (MALME-3M melanoma): 59.6 µM | TGI (SN12C renal): 53.5 µM | TGI (NCI/ADR-RES ovarian): 54.4 µM | TGI (SK-MEL-5 melanoma): 32.9 µM | TGI (T-47D breast): 90.6 µM | TGI (A549 NSCLC): > 100 µM | TGI (SK-MEL-28 melanoma): > 71.4 µM | TGI (SNB-78 CNS): 85.9 µM | TGI (OVCAR-3 ovarian): > 62.8 µM | TGI (ACHN renal): > 80.1 µM | TGI (LOX IMVI melanoma): 38.8 µM | TGI (NCI-H522 lung): 52.8 µM | TGI (EKVX NSCLC): > 74 µM | TGI (HCT-15 colon): 46.8 µM | TGI (KM12 colon): 85.6 µM | TGI (HOP-62 NSCLC): > 50.9 µM | TGI (NCI-H23 lung): 44.6 µM | TGI (SK-MEL-2 melanoma): 86.2 µM

C/C(CC(=O)Nc1ccc(Cl)cc1)=N\NC(N)=S
TGI (XF 498 CNS): > 100 µM | TGI (SF-539 CNS): > 100 µM | TGI (HL-60(TB) leukemia): > 100 µM | TGI (COLO 205 colon): > 100 µM | TGI (M14 melanoma): > 100 µM | TGI (SNB-75 CNS): > 100 µM | TGI (DMS 114 small cell lung): > 100 µM | TGI (SW-620 colon): > 100 µM | TGI (DMS 273 small cell lung): > 100 µM | TGI (HCC-2998 colon): 75.7 µM | TGI (SF-295 CNS): > 100 µM | TGI (U251 CNS): > 100 µM | TGI (K-562 leukemia): > 100 µM | TGI (UACC-62 melanoma): > 100 µM | TGI (RXF 393 renal): > 100 µM | TGI (HCT-116 colon): > 100 µM | TGI (OVCAR-5 ovarian): > 100 µM | TGI (SK-OV-3 ovarian): > 100 µM | TGI (OVCAR-8 ovarian): > 100 µM | TGI (LXFL 529 NSCLC): > 100 µM | TGI (M19-MEL melanoma): > 100 µM | TGI (RXF-631 renal): > 100 µM | TGI (KM20L2 colon): > 100 µM | TGI (UACC-257 melanoma): > 100 µM | TGI (A498 renal): > 100 µM | TGI (HT29 colon): > 100 µM | TGI (HOP-92 NSCLC): > 100 µM | TGI (CCRF-CEM leukemia): > 100 µM | TGI (786-0 renal): > 100 µM | TGI (MOLT-4 leukemia): > 100 µM | TGI (RPMI-8226 leukemia): > 100 µM | TGI (DLD-1 colon): > 100 µM | TGI (TK-10 renal): > 100 µM | TGI (NCI-H460 lung): > 100 µM | TGI (SF-268 CNS): > 100 µM | TGI (IGROV1 ovarian): > 100 µM | TGI (MALME-3M melanoma): > 100 µM | TGI (SK-MEL-5 melanoma): > 100 µM | TGI (A549 NSCLC): > 100 µM | TGI (SK-MEL-28 melanoma): > 100 µM | TGI (SNB-78 CNS): > 100 µM | TGI (OVCAR-3 ovarian): > 100 µM | TGI (ACHN renal): > 100 µM | TGI (LOX IMVI melanoma): > 100 µM | TGI (NCI-H522 lung): > 100 µM | TGI (EKVX NSCLC): > 100 µM | TGI (KM12 colon): > 100 µM | TGI (HOP-62 NSCLC): > 100 µM | TGI (NCI-H23 lung): > 100 µM | TGI (SK-MEL-2 melanoma): > 100 µM

C[Si](C)(C)c1ccc(-c2sc(-c3ccc([Si](C)(C)C)s3)c3c2C[Si]2(C3)Cc3c(-c4ccc([Si](C)(C)C)s4)sc(-c4ccc([Si](C)(C)C)s4)c3C2)s1
TGI (XF 498 CNS): > 100 µM | TGI (SF-539 CNS): > 100 µM | TGI (HL-60(TB) leukemia): > 100 µM | TGI (COLO 205 colon): > 100 µM | TGI (M14 melanoma): > 100 µM | TGI (SNB-75 CNS): > 100 µM | TGI (SW-620 colon): > 100 µM | TGI (DMS 273 small cell lung): > 100 µM | TGI (HCC-2998 colon): > 100 µM | TGI (UO-31 renal): > 100 µM | TGI (SF-295 CNS): > 100 µM | TGI (U251 CNS): > 100 µM | TGI (K-562 leukemia): > 100 µM | TGI (UACC-62 melanoma): > 100 µM | TGI (RXF 393 renal): > 100 µM | TGI (HCT-116 colon): > 100 µM | TGI (OVCAR-5 ovarian): > 100 µM | TGI (SK-OV-3 ovarian): > 100 µM | TGI (OVCAR-8 ovarian): > 100 µM | TGI (LXFL 529 NSCLC): > 100 µM | TGI (M19-MEL melanoma): > 100 µM | TGI (RXF-631 renal): > 100 µM | TGI (KM20L2 colon): > 100 µM | TGI (UACC-257 melanoma): > 100 µM | TGI (HT29 colon): > 100 µM | TGI (SNB-19 CNS): > 100 µM | TGI (HOP-92 NSCLC): > 100 µM | TGI (CCRF-CEM leukemia): > 100 µM | TGI (786-0 renal): > 100 µM | TGI (MOLT-4 leukemia): > 100 µM | TGI (RPMI-8226 leukemia): > 100 µM | TGI (CAKI-1 renal): > 100 µM | TGI (NCI-H226 lung): > 100 µM | TGI (DLD-1 colon): > 100 µM | TGI (SR leukemia): > 100 µM | TGI (TK-10 renal): > 100 µM | TGI (NCI-H460 lung): > 100 µM | TGI (SF-268 CNS): > 100 µM | TGI (IGROV1 ovarian): > 100 µM | TGI (OVCAR-4 ovarian): > 100 µM | TGI (MALME-3M melanoma): > 100 µM | TGI (SN12C renal): > 100 µM | TGI (SK-MEL-5 melanoma): > 100 µM | TGI (A549 NSCLC): > 100 µM | TGI (SK-MEL-28 melanoma): > 100 µM | TGI (SNB-78 CNS): > 100 µM | TGI (OVCAR-3 ovarian): > 100 µM | TGI (ACHN renal): > 100 µM | TGI (LOX IMVI melanoma): > 100 µM | TGI (NCI-H522 lung): > 100 µM | TGI (HCT-15 colon): > 100 µM | TGI (KM12 colon): > 100 µM | TGI (HOP-62 NSCLC): > 100 µM | TGI (NCI-H23 lung): > 100 µM
